Assay results taken from ChEMBL document CHEMBL4715697, “Synthesis and biological activity of benzamide DNA minor groove binders” (2016).

Columns and labels:
SK-MEL-5 = experiment: Growth inhibition of human SK-MEL-5 cells assessed as cell growth at 100 uM incubated for 48 hrs by sulforhodamine B assay relative to control; assay type: functional; settings: read-out: Activity
HOP-92 = experiment: Growth inhibition of human HOP-92 cells assessed as cell growth at 10 uM incubated for 48 hrs by sulforhodamine B assay relative to control; assay type: functional; settings: read-out: Activity

SMILES | growth at 100 µM (SK-MEL-5) [%] | growth at 10 µM (HOP-92) [%]
CC(=O)Nc1cc(CO[Si](C)(C)C(C)(C)C)cc(NC(=O)c2ccc(C(=O)Nc3cccc(NC(=O)CCCN(C)C)c3)cc2)c1 | 73 | –
CC(=O)Nc1cc(CCl)cc(NC(=O)c2ccc(C(=O)Nc3cccc(NC(=O)CCCN(C)C)c3)cc2)c1 | 75 | –
CC(=O)Nc1cc(CO)cc(NC(=O)c2ccccc2)c1 | – | 96.3
